Results from BindingDB's records for patent US12570607 (CSPC Zhongqi Pharmaceutical Technology (Shijiazhuang) Co., 2026).

How the values were obtained:
Assay in all cases: Inhibitory Effect Assay
[1] = target: Cyclin-dependent kinase 6 (Homo sapiens, UniProt Q00534)
Description: (§1) A compound dissolved in DMSO (50 nL) was transferred to the kinase reaction plate by using acoustic technology (Echo). 5 μL of a CDK kinase dilution solution was added to the kinase reaction plate and incubated at room temperature for 10 minutes after centrifugation. 5 μL of a substrate premix solution was added to the plate, and the final concentrations of the substrate and the ATP in each well were shown in Table 1. After centrifugation, the reaction was performed at 30° C. for 120 minutes.

[2] = target: Cyclin-dependent kinase 7 (Homo sapiens, UniProt P50613)
Sequence of Cyclin-dependent kinase 7 (P50613 whole entry): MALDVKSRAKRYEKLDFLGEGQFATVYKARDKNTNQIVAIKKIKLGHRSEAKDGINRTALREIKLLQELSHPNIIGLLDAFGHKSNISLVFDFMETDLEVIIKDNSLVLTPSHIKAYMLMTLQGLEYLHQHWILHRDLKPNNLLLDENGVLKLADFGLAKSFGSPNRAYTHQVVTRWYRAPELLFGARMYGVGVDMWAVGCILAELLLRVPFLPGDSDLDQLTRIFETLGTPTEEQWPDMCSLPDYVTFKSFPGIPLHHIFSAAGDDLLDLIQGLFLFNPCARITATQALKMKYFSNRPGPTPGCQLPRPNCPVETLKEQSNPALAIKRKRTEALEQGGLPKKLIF
Description: as §1

[3] = target: Cyclin-dependent kinase 5 (Homo sapiens, UniProt Q00535)
Sequence of Cyclin-dependent kinase 5 (Q00535 whole entry): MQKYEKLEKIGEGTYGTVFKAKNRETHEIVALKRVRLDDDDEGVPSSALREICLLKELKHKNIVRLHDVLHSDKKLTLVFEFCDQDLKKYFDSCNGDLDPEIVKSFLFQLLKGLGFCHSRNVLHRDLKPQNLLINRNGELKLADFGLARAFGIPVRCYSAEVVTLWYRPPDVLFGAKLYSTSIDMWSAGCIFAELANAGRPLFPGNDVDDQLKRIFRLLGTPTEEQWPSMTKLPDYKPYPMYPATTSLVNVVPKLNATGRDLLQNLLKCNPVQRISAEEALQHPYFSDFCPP
Description: as §1

[4] = target: Cyclin-dependent kinase 9 (Homo sapiens, UniProt P50750)
Sequence of Cyclin-dependent kinase 9 (P50750 whole entry): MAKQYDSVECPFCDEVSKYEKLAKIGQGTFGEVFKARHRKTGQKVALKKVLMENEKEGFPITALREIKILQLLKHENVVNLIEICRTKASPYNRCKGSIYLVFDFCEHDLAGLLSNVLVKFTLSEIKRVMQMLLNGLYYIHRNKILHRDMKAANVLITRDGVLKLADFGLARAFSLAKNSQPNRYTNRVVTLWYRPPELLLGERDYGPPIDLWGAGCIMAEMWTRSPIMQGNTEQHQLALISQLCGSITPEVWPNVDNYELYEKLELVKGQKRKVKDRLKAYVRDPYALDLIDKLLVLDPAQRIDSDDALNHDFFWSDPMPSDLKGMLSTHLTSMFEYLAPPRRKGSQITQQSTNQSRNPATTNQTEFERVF
Description: as §1

[5] = target: Cyclin-dependent kinase 2 (Homo sapiens, UniProt P24941)
Description: as §1

[6] = target: Cyclin-dependent kinase 1 (Homo sapiens, UniProt P06493)
Sequence of Cyclin-dependent kinase 1 (P06493 whole entry): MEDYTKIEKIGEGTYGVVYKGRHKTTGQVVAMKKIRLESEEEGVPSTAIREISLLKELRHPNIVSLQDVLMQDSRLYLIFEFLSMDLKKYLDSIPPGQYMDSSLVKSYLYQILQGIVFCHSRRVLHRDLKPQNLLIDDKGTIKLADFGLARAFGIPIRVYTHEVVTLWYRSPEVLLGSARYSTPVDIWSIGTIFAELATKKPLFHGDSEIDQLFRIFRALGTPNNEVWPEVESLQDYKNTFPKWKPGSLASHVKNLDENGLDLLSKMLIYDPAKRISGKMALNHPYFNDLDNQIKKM
Description: as §1

[7] = target: Cyclin-dependent kinase 4 (Homo sapiens, UniProt P11802)
Sequence of Cyclin-dependent kinase 4 (P11802 whole entry): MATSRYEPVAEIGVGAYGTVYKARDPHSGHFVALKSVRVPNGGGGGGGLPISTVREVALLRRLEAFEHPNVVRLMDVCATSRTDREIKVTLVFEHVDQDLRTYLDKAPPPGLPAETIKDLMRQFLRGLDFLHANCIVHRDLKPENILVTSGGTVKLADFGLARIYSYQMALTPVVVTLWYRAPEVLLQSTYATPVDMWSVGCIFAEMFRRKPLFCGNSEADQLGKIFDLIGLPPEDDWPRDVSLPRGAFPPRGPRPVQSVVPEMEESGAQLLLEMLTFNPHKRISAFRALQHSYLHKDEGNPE
Description: as §1

Sequence of Cyclin-dependent kinase 6 (Q00534 whole entry): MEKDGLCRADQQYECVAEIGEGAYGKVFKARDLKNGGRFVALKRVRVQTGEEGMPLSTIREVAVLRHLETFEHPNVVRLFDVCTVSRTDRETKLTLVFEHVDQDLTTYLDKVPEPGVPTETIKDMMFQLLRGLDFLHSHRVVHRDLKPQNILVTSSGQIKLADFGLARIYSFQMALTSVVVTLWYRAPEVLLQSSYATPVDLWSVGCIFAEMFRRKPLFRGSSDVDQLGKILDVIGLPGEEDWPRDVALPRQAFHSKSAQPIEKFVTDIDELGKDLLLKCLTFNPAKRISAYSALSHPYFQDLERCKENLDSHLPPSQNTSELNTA

IC50 [1] [nM] | IC50 [2] [nM] | IC50 [3] [nM] | IC50 [4] [nM] | IC50 [5] [nM] | IC50 [6] [nM] | IC50 [7] [nM] | Compound
1390 | 6210 | 721 | 16.8 | 2120 | 262 | – | COc1cc(F)ccc1-c1cc(NC(=O)C2CCCC(NC(C)=O)C2)ncc1F (stereo unspecified) [US12570607, Example 3]
1120 | 2750 | – | 7.9 | 475 | – | 429 | COc1cc(F)ccc1-c1cc(NC(=O)[C@H]2CCC[C@@H](NC(C)=O)C2)ncc1F [US12570607, Example 5]
1770 | > 9900 | 614 | 7.21 | 991 | 214 | 273 | CC(=O)N[C@@H]1CCC[C@H](C(=O)Nc2cc(-c3ccc(F)cc3OC(C)C)c(F)cn2)C1 [US12570607, Example 8]
3170 | 5480 | 357 | 7.12 | 1440 | 193 | 474 | COc1ccccc1-c1cc(NC(=O)[C@H]2CCC[C@@H](NC(C)=O)C2)ncc1F [US12570607, Example 17]
297 | 1170 | – | 7.65 | 638 | 87.1 | 196 | CC(=O)N[C@@H]1CCC[C@H](C(=O)Nc2cc(-c3cccc4ccoc34)c(F)cn2)C1 [US12570607, Example 19]
2360 | 4360 | 716 | 7.54 | 2050 | 265 | 811 | COc1cc(F)ccc1-c1cc(NC(=O)[C@H]2CCC[C@@H](NS(C)(=O)=O)C2)ncc1F [US12570607, Example 25]
2450 | 1650 | 329 | 6.86 | 1070 | 86.7 | 353 | COc1cc(F)ccc1-c1cc(NC(=O)[C@H]2CCC[C@@H](NC(=O)CC#N)C2)ncc1F [US12570607, Example 32]
1760 | 1260 | 168 | 6.68 | 761 | 78.8 | 395 | COc1cc(F)ccc1-c1cc(NC(=O)[C@H]2CCC[C@@H](NC(=O)C3(C#N)CC3)C2)ncc1F [US12570607, Example 33]
3370 | 3720 | 209 | 6.88 | 558 | 97 | 630 | COC(=O)N[C@@H]1CCC[C@H](C(=O)Nc2cc(-c3ccc(F)cc3OC)c(F)cn2)C1 [US12570607, Example 36]
2640 | – | 248 | 6.44 | 688 | 82 | 361 | CNC(=O)N[C@@H]1CCC[C@H](C(=O)Nc2cc(-c3ccc(F)cc3OC)c(F)cn2)C1 [US12570607, Example 37]
4980 | 1080 | 361 | 7.65 | 1250 | 196 | 629 | COc1cc(F)ccc1-c1cc(NC(=O)[C@H]2CCC[C@@H](NC(=O)Nc3cc(C)no3)C2)ncc1F [US12570607, Example 41]
1010 | – | 140 | 6.66 | 253 | 72.6 | 184 | COc1cc(F)ccc1-c1cc(NC(=O)[C@H]2CCC[C@@H](NC(=O)C(F)(F)F)C2)ncc1F [US12570607, Example 42]
3080 | 2410 | 296 | 7.17 | 823 | 80 | 582 | COc1cc(F)ccc1-c1cc(NC(=O)[C@H]2CCC[C@@H](NC(=O)c3ccccn3)C2)ncc1F [US12570607, Example 43]
2790 | 4440 | 284 | 6.92 | 564 | 93.2 | 785 | COc1cc(F)ccc1-c1cc(NC(=O)[C@H]2CCC[C@@H](NC(=O)CO)C2)ncc1F [US12570607, Example 45]
3630 | 2150 | 301 | 6.84 | – | 133 | 767 | COc1cc(F)ccc1-c1cc(NC(=O)[C@H]2CCC[C@@H](NC(=O)[C@H](C)O)C2)ncc1F [US12570607, Example 48]
600 | 1420 | 82.9 | 5.45 | 392 | – | 268 | COc1cc(F)c(F)cc1-c1cc(NC(=O)[C@H]2CCC[C@@H](NC(=O)C3(C#N)CC3)C2)ncc1F [US12570607, Example 67]
2030 | 2630 | 162 | 5.55 | 274 | 73.6 | 402 | COc1cc(F)c(F)cc1-c1cc(NC(=O)[C@H]2CCC[C@@H](NC(=O)CO)C2)ncc1F [US12570607, Example 68]
